The values that follow come from US5466687A, “Arylidene-1-azacycloalkanes and arylalkyl-1-azacyclo-alkanes, their salts, medicaments containing these compounds and their use, and processes for their preparation” (priority 1992, dated 1995).

For assay [1], the system named is human hepatoma cells (HEP-G2). Nature of the assay: Inhibition of 14C-acetate incorporation in digitonin-precipitatable steroids in HEP-G2 cells. It counts as cell-based. The settings on record: for percent change in 14C-acetate incorporation into sterols at 0.1 µM / percent change in 14C-acetate incorporation into sterols at 0.01 µM: Homo sapiens; for percent change in 14C-acetate incorporation into sterols at 0.1 µM: HepG2, 10^-7 mol/l; for percent change in 14C-acetate incorporation into sterols at 0.01 µM: HepG2, 10^-8 mol/l. Here is the method: I. Measurement of the inhibition of ^14 C-acetate incorporation in digitonin-precipitatable steroids:
After 3 days of culture, human hepatoma cells (HEP-G2) are stimulated for 16 hours in cholesterol-free medium. The substances to be tested (dissolved in dimethyl sulphoxide, final concentration 0.1%) are added during this stimulation phase. After the addition of 200 μmol/l of 2-^14 C-acetate, the mixture is then reincubated at 37° C. for a further 2 hours.
The cells are detached and the sterol esters are hydrolyzed and, after extraction, sterols are precipitated using digitonin. The ^14 C-acetate incorporated into digitonin-precipitatable sterols is determined by scintillation measurement.
The investigation of the inhibitory action was carried out at test concentrations of 10^-7 mol/l and 10^-8 mol/l. The test results of the following compounds A to AG of the general formula I are indicated at these test concentrations by way of example: […]

The test system of assay [2] is 2,3-epoxysqualene-lanosterol cyclase. Nature of the assay: In vivo effect in the rat after oral administration: 2,3-epoxysqualene level in plasma. Further details: species or system rat (male Wistar). Particulars: 5 hours after administration. The protocol: II. Measurement of the in vivo effect in the rat after oral administration
The inhibition of the enzyme 2,3-epoxysqualene-lanosterol cyclase causes an increase in the 2,3-epoxy-squalene level in the liver and plasma. Therefore, the amount of 2,3-epoxysqualene formed therefore serves as a direct measure of the effectiveness in the whole animal. The determination is carried out by the following method:
The test substance suspended in 1.5% strength aqueous methylcellulose is administered via stomach tube to male Wistar rats (160-190 g body weight). 5 hours after administration, blood is obtained retroorbitally from the venous plexus. Plasma is extracted by the method of Bligh and Dyer (Canad. J. Biochem. Physiol. 37, 912, [1959]), purified by means of a precolumn and then analyzed by means of HPLC. The peaks obtained are identified and quantified by means of calibration substances. An internal standard is used to check the reproducibility of the results.
The investigations were carried out using concentrations of 0.1 and 1.0 mg/kg. The results for the above mentioned substances A to M are compiled in the following Table by way of example: […]

For the compound `O=C(c1ccccc1)N1CCC(=Cc2ccc(C3=NCCO3)cc2)CC1` [AA, 1-benzoyl-4-[4-(2-oxazolin-2-yl)benzylidene]piperidine], in assay [1], the percent change in 14C-acetate incorporation into sterols at 0.1 µM is -70% and the percent change in 14C-acetate incorporation into sterols at 0.01 µM was -25%.

`CC(C)(C)c1ccc(C(=O)N2CCC(=Cc3ccc(C4=NCCO4)cc3)CC2)cc1` [AB, 1-(4-tert.butylbenzoyl)-4-[4-(2-oxazolin-2-yl)benzylidene]piperidine]: in assay [1], the percent change in 14C-acetate incorporation into sterols at 0.1 µM is -18% and the percent change in 14C-acetate incorporation into sterols at 0.01 µM was -6%.

With `COc1ccc(C(=O)N2CCC(=Cc3ccc(C4=NCCO4)cc3)CC2)cc1` [AC, 1-(4-methoxybenzoyl)-4-[4-(2-oxazolin-2-yl)benzylidene]piperidine], in assay [1], the percent change in 14C-acetate incorporation into sterols at 0.1 µM is -25% and the percent change in 14C-acetate incorporation into sterols at 0.01 µM is -16%.

For the compound `O=C(c1ccc(Br)cc1)N1CCC(=Cc2ccc(C3=NCCO3)cc2)CC1` [AD, 1-(4-bromobenzoyl)-4-[4-(2-oxazolin-2-yl)benzylidene]piperidine], in assay [1], the percent change in 14C-acetate incorporation into sterols at 0.1 µM is -85% and the percent change in 14C-acetate incorporation into sterols at 0.01 µM is -44%.

In the case of `O=C(c1ccc([N+](=O)[O-])cc1)N1CCC(=Cc2ccc(C3=NCCO3)cc2)CC1` [AE, 1-(4-nitrobenzoyl)-4-[4-(2-oxazolin-2-yl)benzylidene]piperidine], in assay [1], the percent change in 14C-acetate incorporation into sterols at 0.1 µM was -71% and the percent change in 14C-acetate incorporation into sterols at 0.01 µM is -22%.

Regarding `O=C(Cc1ccc(Cl)cc1)N1CCC(=Cc2ccc(C3=NCCO3)cc2)CC1` [AF, 1-(4-chlorophenylacetyl)-4-[4-(2-oxazolin-2-yl)benzylidene]piperidine], in assay [1], the percent change in 14C-acetate incorporation into sterols at 0.1 µM was -63% and the percent change in 14C-acetate incorporation into sterols at 0.01 µM was -22%.

Turning to `O=C(c1cccc2ccccc12)N1CCC(=Cc2ccc(C3=NCCO3)cc2)CC1` [AG, 1-(1-naphthylcarbonyl)-4-[4-(2-oxazolin-2-yl)benzylidene]piperidine], in assay [1], the percent change in 14C-acetate incorporation into sterols at 0.1 µM was -67% and the percent change in 14C-acetate incorporation into sterols at 0.01 µM is -30%.

As to `O=C(c1ccc(Cl)cc1)N1CCC(=Cc2ccc(C3=NCCCO3)cc2)CC1` [B, 1-(4-chlorobenzoyl)-4-[4-(4,5-dihydro-6H-oxazin-2-yl)benzylidene]piperidine], in assay [1], the percent change in 14C-acetate incorporation into sterols at 0.1 µM was -77% and the percent change in 14C-acetate incorporation into sterols at 0.01 µM is -51%. For the same compound, the “2,3-Epoxysqualene concentration in plasma (rat)” value (from here on “2,3-Epoxysqualene concentration”) in assay [2] (0.1 mg/kg oral) was 0.46 µg/mL. Further, in assay [2] (1.0 mg/kg oral), the “2,3-Epoxysqualene concentration” value turned out to be 3.14 µg/mL.

As to `O=C(c1ccc(C(F)(F)F)cc1)N1CCC(=Cc2ccc(C3=NCCO3)cc2)CC1` [C, 4-[4-(2-oxazolin-2-yl)benzylidene]-1-(4-trifluoromethylbenzoyl)piperidine], in assay [1], the percent change in 14C-acetate incorporation into sterols at 0.1 µM is -90%. In addition, in assay [1], the percent change in 14C-acetate incorporation into sterols at 0.01 µM is -74%. The “2,3-Epoxysqualene concentration” value amounted to 0.91 µg/mL in assay [2] (0.1 mg/kg oral) and 5.90 µg/mL in assay [2] (1.0 mg/kg oral).

In the case of `Cc1cc(C(=O)N2CCC(=Cc3ccc(C4=NCCO4)cc3)CC2)ccc1Cl` [D, 1-(4-chloro-3-methylbenzoyl)-4-[4-(2-oxazolin-2-yl)benzylidene]piperidine], in assay [1], the percent change in 14C-acetate incorporation into sterols at 0.1 µM was -88% and the percent change in 14C-acetate incorporation into sterols at 0.01 µM is -55%. Further, the “2,3-Epoxysqualene concentration” value in assay [2] (0.1 mg/kg oral) came out at 0.78 µg/mL. Further, the “2,3-Epoxysqualene concentration” value in assay [2] (1.0 mg/kg oral) amounted to 3.35 µg/mL.

As for `O=C(c1ccc(F)cc1)N1CCC(=Cc2ccc(C3=NCCO3)cc2)CC1` [E, 1-(4-fluorobenzoyl)-4-[4-(2-oxazolin-2-yl)benzylidene]piperidine], the percent change in 14C-acetate incorporation into sterols at 0.1 µM in assay [1] was -81%. Moreover, in assay [1], the percent change in 14C-acetate incorporation into sterols at 0.01 µM is -36%. Further, the “2,3-Epoxysqualene concentration” value was determined as 0.67 µg/mL in assay [2] (0.1 mg/kg oral) and 6.09 µg/mL in assay [2] (1.0 mg/kg oral).

Turning to `O=C(c1ccc(Cl)s1)N1CCC(=Cc2ccc(C3=NCCO3)cc2)CC1` [F, 1-(5-chloro-2-thienoyl)-4-[4-(2-oxazolin-2-yl)benzylidene]piperidine], the “inhibition of 14C-acetate incorporation” value in assay [1] (10^-8 mol/l) is given as -55%. In assay [1], the percent change in 14C-acetate incorporation into sterols at 0.1 µM is -84%. For the same compound, the “2,3-Epoxysqualene concentration” value in assay [2] (0.1 mg/kg oral) came out at 0.00 µg/mL; in assay [2] (1.0 mg/kg oral) it was 2.00 µg/mL.

Take `O=S(=O)(c1ccc(Cl)cc1)N1CCC(=Cc2ccc(C3=NCCO3)cc2)CC1` [N, 1-(4-chlorobenzenesulphonyl)-4-[4-(2-oxazolin-2-yl)benzylidene]piperidine]: in assay [1], the percent change in 14C-acetate incorporation into sterols at 0.1 µM was -86% and the percent change in 14C-acetate incorporation into sterols at 0.01 µM is -63%.

Take `O=S(=O)(c1ccc(Cl)cc1)N1CCC(=Cc2ccc(C3=NCCN3)cc2)CC1` [O, 1-(4-chlorobenzenesulphonyl)-4-[4-(2-imidazolin-2-yl)benzylidene]piperidine]: in assay [1], the percent change in 14C-acetate incorporation into sterols at 0.1 µM is -45% and the percent change in 14C-acetate incorporation into sterols at 0.01 µM is -1%.

As to `O=C(c1ccc(Cl)cc1)N1CCC(Cc2ccc(C3=NCCS3)cc2)CC1` [P, 1-(4-chlorobenzoyl)-4-[4-(2-thiazolin-2-yl)benzyl]piperidine], in assay [1], the percent change in 14C-acetate incorporation into sterols at 0.1 µM is -14% and the percent change in 14C-acetate incorporation into sterols at 0.01 µM is -5%.

Take `C[C@H]1CN=C(c2ccc(C=C3CCN(C(=O)c4ccc(Cl)cc4)CC3)cc2)O1` [Q, 1-(4-chlorobenzoyl)-4-[4-(S-5-methyl-2-oxazolin-2-yl)benzylidene]piperidine]: in assay [1], the percent change in 14C-acetate incorporation into sterols at 0.1 µM is -89% and the percent change in 14C-acetate incorporation into sterols at 0.01 µM is -44%.

`C[C@@H]1COC(c2ccc(C=C3CCN(C(=O)c4ccc(Cl)cc4)CC3)cc2)=N1` [R, 1-(4-chlorobenzoyl)-4-[4-(R-4-methyl-2-oxazolin-2-yl)benzylidene]piperidine]: in assay [1], the percent change in 14C-acetate incorporation into sterols at 0.1 µM is -88% and the percent change in 14C-acetate incorporation into sterols at 0.01 µM is -57%.

Regarding `O=C(c1ccc(Cl)cc1)N1CCC(=Cc2ccc(C3=NCC(c4ccccc4)O3)cc2)CC1` (stereo not drawn) [S, 1-(4-chlorobenzoyl)-4-[4-(5-phenyl-2-oxazolin-2-yl)benzylidene]piperidine], in assay [1], the percent change in 14C-acetate incorporation into sterols at 0.1 µM was -24% and the percent change in 14C-acetate incorporation into sterols at 0.01 µM amounted to 0%.

`CCN(CC)CC1CN=C(c2ccc(C=C3CCN(C(=O)c4ccc(Cl)cc4)CC3)cc2)O1` (stereo not drawn) [T, 1-(4-chlorobenzoyl)-4-[4-(5-diethylaminomethyl-2-oxazolin-2-yl)benzylidene]piperidine]: in assay [1], the percent change in 14C-acetate incorporation into sterols at 0.1 µM is -57% and the percent change in 14C-acetate incorporation into sterols at 0.01 µM is -29%.

As to `O=C(c1ccc(Cl)cc1)N1CCC(=Cc2ccc(C3=NC(CO)CO3)cc2)CC1` (stereo not drawn) [U, 1-(4-chlorobenzoyl)-4-[4-(4-hydroxymethyl-2-oxazolin-2-yl)benzylidene]piperidine], in assay [1], the percent change in 14C-acetate incorporation into sterols at 0.1 µM was -60% and the percent change in 14C-acetate incorporation into sterols at 0.01 µM is -21%.

Consider `O=C(c1ccc(Cl)cc1)N1CCC(=Cc2ccc(C3=N[C@@H](Cc4ccccc4)CO3)cc2)CC1` [V, 4-[4-(S-4-benzyl-2-oxazolin-2-yl)benzylidene]-1-(4-chlorobenzoyl)piperidine], for which, in assay [1], the percent change in 14C-acetate incorporation into sterols at 0.1 µM is -29% and the percent change in 14C-acetate incorporation into sterols at 0.01 µM is -15%.

`CC(=C1CCN(C(=O)c2ccc(Cl)cc2)CC1)c1ccc(C2=NCCO2)cc1` [W, 1-(4-chlorobenzoyl)-4-[4-(2-oxazolin-2-yl)-α-methylbenzylidene]piperidine]: in assay [1], the percent change in 14C-acetate incorporation into sterols at 0.1 µM was -77% and the percent change in 14C-acetate incorporation into sterols at 0.01 µM was -35%.

As to `O=C(c1ccc(Cl)s1)N1CCC(=Cc2ccc(C3=NCCO3)cc2)CC1` [X, 1-(5-chloro-2-thienoyl)-4-[4-(2-oxazolin-2-yl)benzylidene]piperidine], the results for the “inhibition of 14C-acetate incorporation” value in assay [1] (10^-7 mol/l) and in assay [1] (10^-8 mol/l) were -84% and -35%, respectively.

As to `N#Cc1ccc(C(=O)N2CCC(=Cc3ccc(C4=NCCO4)cc3)CC2)cc1` [Y, 1-(4-cyanobenzoyl)-4-[4-(2-oxazolin-2-yl)benzylidene]piperidine], in assay [1], the percent change in 14C-acetate incorporation into sterols at 0.1 µM is -74% and the percent change in 14C-acetate incorporation into sterols at 0.01 µM is -51%.

Regarding `O=C(c1c(F)c(F)c(F)c(F)c1F)N1CCC(=Cc2ccc(C3=NCCO3)cc2)CC1` [Z, 4-[4-(2-oxazolin-2-yl)benzylidene]-1-(pentafluorobenzoyl)piperidine], in assay [1], the percent change in 14C-acetate incorporation into sterols at 0.1 µM is -45% and the percent change in 14C-acetate incorporation into sterols at 0.01 µM is -8%.
